Literature values as cited in article PMC12022903, “Evaluation of drug-drug interaction between Suraxavir Marboxil (GP681) and itraconazole, and assessment of the impact of gene polymorphism” (Frontiers in Pharmacology, 2025).

Key:
[1] = tested on: avian influenza virus strains; settings: ref unpublished data; cited from earlier work
MDR1 = tested on: MDR1; parameters: method as in unpublished data; settings: preclinical studies; ref unpublished data; cited from earlier work

O=C1c2c(O)c(=O)ccn2N([C@@H]2c3ccccc3SCc3c2ccc(F)c3F)[C@@H]2COC3(CC3)CN12 [GP1707D07]
in vitro antiviral activity (average EC50 and EC90) compared with baloxavir [1]: better in vitro antiviral activity
in vitro inhibitory activity against avian influenza virus strains [1]: inhibitory activity against all tested avian influenza virus strains
substrate for the MDR1 transporter (MDR1): Neither Suraxavir Marboxil (GP681) nor its metabolite, GP1707D07, serves as substrates
